According to patent publication USRE38963E1, “Pyrazoline derivatives, their preparation and application as medicaments” (Laboratorios del Dr. Esteve, priority 1998, dated 2006):
Like-named read-outs stand apart in the source and are kept apart here. One block for each compound: values may come before it.

How the values were obtained:
[1] = system: gastric ulcers in rats; assay: Gastrointestinal effects: induction of ulcers in rats submitted to cold stress; type: in vivo; conditions: rat, po; for Maximum non-Ulcerogenic dose: linear regression of dose-response
Description: Gastrointestinal Effects (GI): Induction of Ulcers in Rats Submitted to Cold Stress
In this assay possible ulcerogenic effects at a gastrointestinal level were determined after oral administration. […] Firstly the rats received the products under study orally at different doses. After two hours had elapsed the rats were placed in a chest freezer at −15° C. for 1 hour. Afterwards they were left for 1 hour at room temperature The animals were then sacrificed and the stomach extracted. The stomach was kept in saline solution for 15 minutes After this time the percentage of surface area with gastric ulcers was determined using a Project C.S.V. vs 1.2 image analyser for each stomach.

[2] = system: COX-2/COX-1 (PGE2 in inflammatory exudate); assay: Inhibition of the synthesis of prostaglandins (PGE2) in inflammatory exudate in rat, carrageenan sponge; type: in vivo; conditions: for inhibition at 40 mg/kg: read-out: Inhibition of PGE2, Inflammatory exudate; for ED50: read-out: ED-50, Inhibition of PGE2, Inflammatory exudate
Description: (§1) Inhibition of the Synthesis of Prostaglandins in Inflammatory Exudate and Mucus Membrane in Rat
(§2) The products under study are administered orally at an initial screening dose of 40 mg/kg One hour after treatment the rats were anaesthetised and a sponge soaked in carrageenan was implanted subcutaneously in the interscapular zone. Six hours after implantation the rats were sacrificed and the interscapular sponges extracted as well as gastric mucuous. Next the PGE2 content was determined by immunoassay for each one of the samples, in the sponge exudate on the one hand and in the gastric mucus on the other.

[3] = system: COX-1 (PGE2 in gastric mucus); assay: Inhibition of the synthesis of prostaglandins (PGE2) in gastric mucus in rat; type: in vivo; conditions: for inhibition at 40 mg/kg: read-out: Inhibition of PGE2, Gastric mucus; for ED50: read-out: ED-50, Inhibition of PGE2, Gastric mucus
Description: as §1, §2

[4] = system: carrageenan pre-inflamed rat paw; assay: Analgesic activity against hyperalgesia by thermal stimulus of pre-inflamed rat paw; type: in vivo; conditions: for % Activity, analgesic activity against hyperalgesia by thermal stimulus: dose 40 mg/kg po, 2 h after treatment; for ED50: po, read-out: ED-50 of analgesic activity against hyperalgesia by thermal stimulus
Description: Analgesic Activity Against “Hyperalgesia” by Thermal Stimulus of Pre-inflamed Rat Paw
In this assay the analgesic activity in rat was monitored following the method described by K. Hargreaves et al. (Pain, 1988, 32, 77-78). Firstly, a suspension of carrageenan was injected into the back right paw of each rat. After two hours the products under study were administered orally at a screening dose of 40 mg/kg. Two hours after treatment a heat source was applied to the sole of each back paw of the rats and the time measured that they took to remove the paw measured. Hyperalgesia was determined by comparing the percentage of algesia of the paw injected with carrageenan to the other back paw. The analgesic activity was calculated comparing these hyperalgesia values of the groups treated with product with those of the group treated with the vehicle only.

[5] = system: secondary inflammation of paw (experimental arthritis); assay: Anti-arthritic activity in rat (Freund adjuvant); type: in vivo; conditions: 10 mg/kg/day po for 11 days
Description: Anti-arthritic Activity in Rat
In this study the anti-arthritic activity in rat of the compound of example 3 has been studied. To do so the method described by B. J. Jaffee et al. (Agents and Actions, 1989, 27, 344-346) was followed. Firstly, the Freund adjuvant was injected (Mycobacterium butiricum suspended in soy-bean oil) through the sub-sole of the back left paw of the rats. After 14 days, when the secondary inflammation had developed in the uninjected paw, which is considered the experimental arthritis, treatment with the product under study or with the vehicle for the control group was started. The compound of example 3 was administered orally at a dose of 10 mg/kg/day for 11 days. The volume of the paw with secondary inflammation in the last days of treatment was measured. The anti-arthritic activity was calculated by comparing the average volume of the paw with secondary inflammation of the group treated with the compound of example 3 and the control group for 5 days.

melting point: 140 to 143 °C
Structure (SMILES): Cc1ccc(C2CC(C(F)(F)F)=NN2c2ccc(S(N)(=O)=O)cc2)cc1 (centres unmarked) [Example 1, 1-(4-Aminosulphonylphenyl)-4,5-dihydro-5-(4-metylphenyl)-3-trifluoromethyl-1H-pyrazole]

melting point: 156 to 157 °C
Structure (SMILES): COC(=O)C1=NN(c2ccc(S(C)(=O)=O)cc2)C(c2ccc(C)cc2)C1 (centres unmarked) [Example 5, methyl 4,5-dihydro-5-(4-methylphenyl)-1-(4-methylsulphonylphenyl)-1H-pyrazole-3-carboxylate]

melting point: 137 to 140 °C
Structure (SMILES): Cc1ccc(C2CC(C(N)=O)=NN2c2ccc(S(N)(=O)=O)cc2)cc1 (centres unmarked) [Example 6, 1-(4-aminosulphonylphenyl)-4,5-dihydro-5-(4-methylphenyl)-1H-pyrazole-3-carboxamide]

melting point: 172 to 176 °C
Structure (SMILES): Cc1ccc(C2CC(C(=O)O)=NN2c2ccc(S(N)(=O)=O)cc2)cc1 (centres unmarked) [Example 34, 1-(4-aminosulphonylphenyl)-4,5-dihydro-5-(4-methylphenyl)-1H-pyrazole-3-carboxylic acid]

melting point: 155 to 160 °C
Structure (SMILES): COC(=O)C1=NN(c2ccc(S(C)(=O)=O)cc2)C(c2ccc(C)cc2)C1 (centres unmarked) [Example 39, methyl 4,5-dihydro-5-(4-methylphenyl)-1-(4-methylsulphonylphenyl)-1H-pyrazole-3-carboxylate]

melting point: 210 to 215 °C
Structure (SMILES): Cc1ccc(C2CC(C(N)=O)=NN2c2ccc(S(N)(=O)=O)cc2)cc1 (centres unmarked) [Example 41, 1-(4-aminosulphonylphenyl)-4,5-dihydro-5-(4-methylphenyl)-1H-pyrazole-3-carboxamide]

melting point: 128 to 132 °C
Structure (SMILES): Cc1ccc(C2CC(C(N)=O)=NN2c2ccc(S(C)(=O)=O)cc2)cc1 (centres unmarked) [Example 42, 4,5-dihydro-5-(4-methylphenyl)-1-(4-methylsulphonylphenyl)-1H-pyrazole-3-carboxamide]

Second part, the compound before the results:

Structure (SMILES): O=C(O)Cc1ccccc1Nc1c(Cl)cccc1Cl [Dichlophenac]
Ulcerogenic effects (in words) ([1]; cold stress): exhibited ulcerogenic effects at very low doses | Maximum non-Ulcerogenic dose ([1]; cold stress): 1.2 mg/kg

Structure (SMILES): CC1(c2ccccc2)CC(C(F)(F)F)=NN1c1ccc(S(N)(=O)=O)cc1 (centres unmarked) [Example 2, 1-(4-Aminosulphonylphenyl)-4,5-dihydro-5-phenyl-5-methyl-3-trifluoromethyl-1H-pyrazole]
melting point: 60 to 66 °C

Structure (SMILES): NS(=O)(=O)c1ccc(N2N=C(C(F)(F)F)CC2c2ccc(F)cc2F)cc1 (centres unmarked) [Example 3, 1-(4-aminosulphonylphenyl)-5-(2,4-difluorophenyl)-4,5-dihydro-3-trifluoro methyl-1H-pyrazole]
inhibition at 40 mg/kg ([2]; rat, dose 40 mg/kg po): 92% | ED50 ([2]; rat, po): 36 mg/kg | inhibition at 40 mg/kg ([3]; rat, dose 40 mg/kg po): 0% | ED50 ([3]; rat, po): > 40 mg/kg | % Activity, analgesic activity against hyperalgesia by thermal stimulus [4]: 100% | ED50 [4]: 0.2 mg/kg | Ulcerogenic effects (in words) ([1]; in vivo): not to have ulcerogenic effects, even at very high doses | Maximum non-Ulcerogenic dose ([1]; cold stress): >80 mg/kg | Inhibition of secondary inflammation (anti-arthritic activity) [5]: 71%

Structure (SMILES): Cc1ccc(C2CC(C#N)=NN2c2ccc(S(C)(=O)=O)cc2)cc1 (centres unmarked) [Example 7, 3-cyano-4,5-dihydro-5-(4-methylphenyl)-1-(4-methylsulphonylphenyl)-1H-pyrazole]
melting point: 115 to 119 °C

Structure (SMILES): CC(=O)NS(=O)(=O)c1ccc(N2N=C(C(F)(F)F)CC2c2ccc(F)cc2F)cc1 (centres unmarked) [Example 8, 1-(4-acetylaminosulphonylphenyl)-5-(2,4-difluorophenyl)-4,5-dihydro-3-trifluoromethyl-1H-pyrazole]
melting point: 154 to 156 °C

Structure (SMILES): Cc1ccc(C2CC(C#N)=NN2c2ccc(S(C)(=O)=O)cc2)cc1 (centres unmarked) [Example 43, 3-cyano-4,5-dihydro-5-(4-methylphenyl)-1-(4-methylsulphonylphenyl)-1H-pyrazole]
melting point: 162 to 164 °C

Structure (SMILES): CC(=O)NS(=O)(=O)c1ccc(N2N=C(C(F)(F)F)CC2c2ccc(F)cc2F)cc1 (centres unmarked) [Example 64, 1-(4-acetylaminosulphonylphenyl)-5-(2,4-difluorophenyl)-4,5-dihydro-3-trifluoromethyl-1H-pyrazole]
melting point: 172 to 174 °C

Structure (SMILES): Cc1cnc(NC(=O)C2=C(O)c3ccccc3S(=O)(=O)N2C)s1 [Meloxicam]
inhibition at 40 mg/kg ([2]; Rattus norvegicus, po): 97% | inhibition at 40 mg/kg ([3]; Rattus norvegicus, po): 65%

Structure (SMILES): COc1ccc2cc(CCC(C)=O)ccc2c1 [Nabumetone]
inhibition at 40 mg/kg ([2]; rat, dose 40 mg/kg po): 93% | ED50 ([2]; rat, po): 110 mg/kg | inhibition at 40 mg/kg ([3]; rat, dose 40 mg/kg po): 0% | ED50 ([3]; rat, po): > 40 mg/kg | % Activity, analgesic activity against hyperalgesia by thermal stimulus [4]: 95% | ED50 [4]: 2.1 mg/kg

Structure (SMILES): CS(=O)(=O)Nc1ccc([N+](=O)[O-])cc1Oc1ccccc1 [Nimesulide]
% Activity, analgesic activity against hyperalgesia by thermal stimulus [4]: 97% | ED50 [4]: 1 mg/kg

Structure (SMILES): CN1C(C(=O)Nc2ccccn2)=C(O)c2ccccc2S1(=O)=O [Piroxicam]
Ulcerogenic effects (in words) ([1]; in vivo): exhibited ulcerogenic effects at very low doses | Maximum non-Ulcerogenic dose ([1]; cold stress): 1.7 mg/kg
